Assays:
[1] = biological target: Serine/threonine-protein kinase WNK4 (Homo sapiens) (UniProt Q96J92); test: Selectivity interaction (KinomeScan (DiscoverX)) EUB0000702a WNK4; conditions: at 1 µM
[2] = biological target: T1, Mitogen-activated protein kinase 15 (Homo sapiens) (UniProt Q8TD08); test: Selectivity interaction (KinomeScan (DiscoverX)) EUB0000702a MAPK15; conditions: at 1 µM
T1 sequence (whole entry): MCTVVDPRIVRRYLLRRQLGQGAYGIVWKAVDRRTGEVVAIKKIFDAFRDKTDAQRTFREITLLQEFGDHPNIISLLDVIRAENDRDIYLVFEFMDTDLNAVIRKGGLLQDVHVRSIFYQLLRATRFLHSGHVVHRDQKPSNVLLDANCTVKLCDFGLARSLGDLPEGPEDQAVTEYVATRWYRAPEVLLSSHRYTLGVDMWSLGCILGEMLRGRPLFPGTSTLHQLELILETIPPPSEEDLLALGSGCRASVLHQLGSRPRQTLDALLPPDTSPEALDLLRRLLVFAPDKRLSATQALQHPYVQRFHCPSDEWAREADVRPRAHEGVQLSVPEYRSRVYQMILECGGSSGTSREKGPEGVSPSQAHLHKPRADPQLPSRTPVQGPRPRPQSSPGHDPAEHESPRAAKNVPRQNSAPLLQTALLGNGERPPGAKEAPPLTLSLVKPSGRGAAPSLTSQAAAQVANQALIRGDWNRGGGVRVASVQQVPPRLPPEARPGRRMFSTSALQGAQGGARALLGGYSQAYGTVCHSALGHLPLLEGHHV

[3] = biological target: T2, Tyrosine-protein kinase JAK3 (Homo sapiens) (UniProt P52333); test: Selectivity interaction (KinomeScan (DiscoverX)) EUB0000138c JAK3; conditions: at 100 nM
T2 sequence (whole entry): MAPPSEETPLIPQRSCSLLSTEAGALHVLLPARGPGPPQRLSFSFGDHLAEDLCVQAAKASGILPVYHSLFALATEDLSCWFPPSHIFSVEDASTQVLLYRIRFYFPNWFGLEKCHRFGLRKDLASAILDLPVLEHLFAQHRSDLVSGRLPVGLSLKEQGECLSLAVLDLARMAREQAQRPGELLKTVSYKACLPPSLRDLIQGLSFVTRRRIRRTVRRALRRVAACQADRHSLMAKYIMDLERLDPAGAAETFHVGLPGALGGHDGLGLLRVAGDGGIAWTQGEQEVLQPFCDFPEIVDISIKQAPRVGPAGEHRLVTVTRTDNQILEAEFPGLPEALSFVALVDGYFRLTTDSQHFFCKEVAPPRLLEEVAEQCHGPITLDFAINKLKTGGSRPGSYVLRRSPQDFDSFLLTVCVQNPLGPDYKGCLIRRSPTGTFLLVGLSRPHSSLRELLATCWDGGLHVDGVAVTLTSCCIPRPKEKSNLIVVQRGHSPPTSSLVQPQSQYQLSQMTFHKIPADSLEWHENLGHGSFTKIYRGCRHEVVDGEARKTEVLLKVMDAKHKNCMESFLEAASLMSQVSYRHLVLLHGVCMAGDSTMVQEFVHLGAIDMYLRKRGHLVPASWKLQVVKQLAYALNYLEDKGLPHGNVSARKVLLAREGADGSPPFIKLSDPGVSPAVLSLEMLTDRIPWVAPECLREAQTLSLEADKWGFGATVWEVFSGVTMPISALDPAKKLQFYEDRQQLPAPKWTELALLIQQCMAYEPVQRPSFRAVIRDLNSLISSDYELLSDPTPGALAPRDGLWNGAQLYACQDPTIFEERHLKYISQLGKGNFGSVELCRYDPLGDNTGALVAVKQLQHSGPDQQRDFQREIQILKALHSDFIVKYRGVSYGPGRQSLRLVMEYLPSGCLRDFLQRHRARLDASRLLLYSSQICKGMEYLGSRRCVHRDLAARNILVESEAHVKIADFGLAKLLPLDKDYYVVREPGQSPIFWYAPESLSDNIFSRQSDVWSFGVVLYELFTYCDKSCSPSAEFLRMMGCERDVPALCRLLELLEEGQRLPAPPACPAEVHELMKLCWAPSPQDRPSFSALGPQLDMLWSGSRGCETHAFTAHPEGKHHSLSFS

[4] = biological target: T3, Mitogen-activated protein kinase kinase kinase 19 (Homo sapiens) (UniProt Q56UN5); test: Selectivity interaction (KinomeScan (DiscoverX)) EUB0000138c MAP3K19; conditions: at 100 nM
T3 sequence (whole entry): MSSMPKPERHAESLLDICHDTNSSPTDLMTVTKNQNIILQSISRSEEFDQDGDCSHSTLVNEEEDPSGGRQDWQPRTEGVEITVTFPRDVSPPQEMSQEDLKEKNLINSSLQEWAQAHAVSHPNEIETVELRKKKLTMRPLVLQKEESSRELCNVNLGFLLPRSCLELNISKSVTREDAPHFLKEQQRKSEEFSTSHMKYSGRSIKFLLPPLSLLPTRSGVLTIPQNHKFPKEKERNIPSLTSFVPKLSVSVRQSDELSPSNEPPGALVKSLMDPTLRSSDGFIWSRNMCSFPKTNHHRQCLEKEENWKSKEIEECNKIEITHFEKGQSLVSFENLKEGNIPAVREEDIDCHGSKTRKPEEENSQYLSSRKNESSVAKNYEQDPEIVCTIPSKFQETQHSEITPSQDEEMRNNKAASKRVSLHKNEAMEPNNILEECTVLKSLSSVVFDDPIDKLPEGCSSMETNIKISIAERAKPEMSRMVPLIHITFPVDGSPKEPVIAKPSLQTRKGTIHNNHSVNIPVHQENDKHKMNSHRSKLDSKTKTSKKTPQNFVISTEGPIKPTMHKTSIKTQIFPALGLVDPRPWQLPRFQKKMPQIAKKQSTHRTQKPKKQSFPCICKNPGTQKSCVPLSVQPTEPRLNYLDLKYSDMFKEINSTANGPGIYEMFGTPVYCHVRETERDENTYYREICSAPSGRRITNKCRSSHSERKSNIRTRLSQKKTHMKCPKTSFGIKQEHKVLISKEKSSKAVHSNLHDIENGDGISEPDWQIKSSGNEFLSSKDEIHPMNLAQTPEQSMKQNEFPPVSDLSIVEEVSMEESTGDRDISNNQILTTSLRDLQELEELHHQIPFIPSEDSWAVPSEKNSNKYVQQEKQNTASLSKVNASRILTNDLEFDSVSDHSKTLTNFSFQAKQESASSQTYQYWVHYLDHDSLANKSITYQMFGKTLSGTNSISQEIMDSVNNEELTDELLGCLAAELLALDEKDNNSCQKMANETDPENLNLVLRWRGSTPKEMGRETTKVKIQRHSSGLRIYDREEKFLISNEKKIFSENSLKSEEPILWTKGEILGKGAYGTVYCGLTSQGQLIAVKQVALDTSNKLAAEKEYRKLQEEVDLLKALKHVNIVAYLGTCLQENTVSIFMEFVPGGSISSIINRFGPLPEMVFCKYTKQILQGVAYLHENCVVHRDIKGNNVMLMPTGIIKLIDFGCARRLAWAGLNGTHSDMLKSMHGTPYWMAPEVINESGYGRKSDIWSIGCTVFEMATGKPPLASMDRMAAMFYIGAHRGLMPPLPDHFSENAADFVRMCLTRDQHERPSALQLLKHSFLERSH

Chain of Serine/threonine-protein kinase WNK4 (Homo sapiens) (Q96J92 whole entry): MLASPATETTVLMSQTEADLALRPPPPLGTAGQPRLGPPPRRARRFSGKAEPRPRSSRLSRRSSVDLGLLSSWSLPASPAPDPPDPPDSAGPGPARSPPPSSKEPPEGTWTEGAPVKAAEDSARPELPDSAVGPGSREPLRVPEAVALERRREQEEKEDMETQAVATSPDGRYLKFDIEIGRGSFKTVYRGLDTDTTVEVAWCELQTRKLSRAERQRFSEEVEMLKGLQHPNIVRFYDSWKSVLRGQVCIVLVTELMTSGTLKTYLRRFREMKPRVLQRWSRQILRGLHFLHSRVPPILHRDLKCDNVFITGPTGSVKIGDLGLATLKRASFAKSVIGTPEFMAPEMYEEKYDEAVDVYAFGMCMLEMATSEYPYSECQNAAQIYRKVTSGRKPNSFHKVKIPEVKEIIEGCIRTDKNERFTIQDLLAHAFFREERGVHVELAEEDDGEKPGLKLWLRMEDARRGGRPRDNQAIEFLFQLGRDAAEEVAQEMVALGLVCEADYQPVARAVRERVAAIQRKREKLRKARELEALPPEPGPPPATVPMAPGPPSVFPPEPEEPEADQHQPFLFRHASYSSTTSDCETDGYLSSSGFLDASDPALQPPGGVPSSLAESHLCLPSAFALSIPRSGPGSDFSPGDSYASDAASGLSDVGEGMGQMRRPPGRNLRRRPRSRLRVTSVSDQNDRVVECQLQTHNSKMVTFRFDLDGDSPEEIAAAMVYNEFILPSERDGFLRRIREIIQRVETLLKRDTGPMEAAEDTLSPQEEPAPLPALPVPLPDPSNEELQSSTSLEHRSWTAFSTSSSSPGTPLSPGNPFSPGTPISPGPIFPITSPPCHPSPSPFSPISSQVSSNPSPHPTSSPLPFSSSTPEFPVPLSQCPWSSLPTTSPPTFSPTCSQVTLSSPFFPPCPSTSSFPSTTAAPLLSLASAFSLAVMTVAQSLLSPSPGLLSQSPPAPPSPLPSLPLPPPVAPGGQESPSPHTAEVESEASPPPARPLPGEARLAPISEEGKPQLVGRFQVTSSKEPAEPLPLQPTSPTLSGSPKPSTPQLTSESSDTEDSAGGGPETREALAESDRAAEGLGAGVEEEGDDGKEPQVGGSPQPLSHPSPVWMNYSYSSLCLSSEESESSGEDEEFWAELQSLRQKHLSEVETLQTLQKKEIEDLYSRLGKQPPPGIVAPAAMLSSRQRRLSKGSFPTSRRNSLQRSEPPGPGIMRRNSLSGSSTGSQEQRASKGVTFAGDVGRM

SMILES | % of control [1] [%] | % of control [2] [%] | % of control [3] [%] | % of control [4] [%]
CN(c1ccnc(CNc2nc(Nc3ccc4c(c3)CC(=O)N4)ncc2C(F)(F)F)n1)S(C)(=O)=O [PF-00911705] | 0 | 4.8 | – | –
CNC(=O)c1ccc(Nc2ncc(C(F)(F)F)c(NCc3nccnc3N(C)S(C)(=O)=O)n2)cc1 [DEFACTINIB] | – | – | 8.2 | 1.7

— ChEMBL document CHEMBL5212743, “Selectivity Literature for EUbOPEN Chemogenomics Library wave 3” (2023)
